Experiments:
[1] = Sensory panel rating of fava bean protein solution at 6% with fatty acid at 400 ppm; conditions: 400 ppm in fava bean protein, 6 wt% in water, no sugar; mean of 18 panelists, scale 0 to 5
Description: Liquid solutions of fava bean protein were prepared (6 percent by weight in water) without sugar added. Control and test samples were prepared. To the test sample 10-undecenoic acid was added at a concentration of 400 ppm. The control and test samples were evaluated by 18 sensory panelists to rate various characteristics of the control sample and the test sample on a scale from 0 to 5.

[2] = Sensory panel rating of pea protein solution at 3% with fatty acid at 700 ppm; conditions: 700 ppm in pea protein, 3 wt% in water, no sugar; mean of eight panelists, scale 0 to 5
Description: Liquid solutions of pea protein were prepared (3 percent by weight in water) without sugar added. Control and test samples were prepared. To the test sample 10-undecenoic acid was added at a concentration of 700 ppm. The control and test samples were evaluated by eight sensory panelists to rate various characteristics of the control sample and the test sample on a scale from 0 to 5.

[3] = Sensory panel rating of oat/pea protein blend solution at 6% with fatty acid at 400 ppm; conditions: 400 ppm in oat/pea protein blend (1:28 w/w), about 6 wt% in water, no sugar; mean of eight panelists, scale 0 to 5
Description: Liquid solutions of a blend of oat and pea protein (1:28 w/w) were prepared (about 6 percent by weight in water) without sugar added. Control and test samples were prepared. To the test sample 10-undecenoic acid was added at a concentration of 400 ppm. The control and test samples were evaluated by eight sensory panelists to rate various characteristics of the control sample and the test sample on a scale from 0 to 5.

[4] = Sensory panel rating of pea protein solution at 3% with fatty acid at 1000 ppm; conditions: 1000 ppm in pea protein, 3 wt% in water, no sugar; mean of eight panelists, scale 0 to 5
Description: Liquid solutions of pea protein were prepared (3 percent by weight in water) without sugar added. Control and test samples were prepared. To the test sample 10-undecenoic acid was added at a concentration of 1000 ppm. The control and test samples were evaluated by eight sensory panelists to rate various characteristics of the control sample and the test sample on a scale from 0 to 5.

[5] = Sensory panel rating of oat/pea protein blend solution at 3% with fatty acid at 400 ppm; conditions: 400 ppm in oat/pea protein blend (1:14 w/w), about 3 wt% in water, no sugar; mean of eight panelists, scale 0 to 5
Description: Liquid solutions of a blend of oat and pea protein (1:14 w/w) were prepared (about 3 percent by weight in water) without sugar added. Control and test samples were prepared. To the test sample 10-undecenoic acid was added at a concentration of 400 ppm. The control and test samples were evaluated by eight sensory panelists to rate various characteristics of the control sample and the test sample on a scale from 0 to 5.

[6] = Sensory panel rating of chickpea protein solution at 6% with fatty acid at 700 ppm; conditions: 700 ppm in chickpea protein, 6 wt% in water, no sugar; mean of 18 panelists, scale 0 to 5
Description: Liquid solutions of xchickpea protein were prepared (6 percent by weight in water) without sugar added. Control and test samples were prepared. To the test sample 10-undecenoic acid was added at a concentration of 700 ppm. The control and test samples were evaluated by 18 sensory panelists to rate various characteristics of the control sample and the test sample on a scale from 0 to 5.

## C=CCCCCCCCCC(=O)O [10-undecenoic acid, Undec-10-enoic acid]
[1]
  Astringent: 3.2
  Bitter: 2.4
  Cereal Note: 2.3
  Creaminess: 1.2
  Fattiness: 1.3
  Green/Vegetal Note: 2.7
  Mouthcoating: 1.8
  Sweet: 2.3
  Thickness: 1.2
[2]
  Astringent: 2.6
  Bitter: 2.1
  Cereal Note: 2.4
  Creaminess: 1.8
  Fattiness: 1.9
  Green/Vegetal Note: 2.4
  Mouthcoating: 2.3
  Sweet: 3.1
  Thickness: 2.0
[3]
  Astringent: 1.8
  Bitter: 1.8
  Cereal Note: 2.8
  Creaminess: 2.4
  Fattiness: 2.3
  Green/Vegetal Note: 2.3
  Mouthcoating: 3.3
  Sweet: 3.1
  Thickness: 2.9
[4]
  Astringent: 2.1
  Bitter: 1.7
  Cereal Note: 2.7
  Creaminess: 2.1
  Fattiness: 2.0
  Green/Vegetal Note: 2.0
  Mouthcoating: 2.9
  Sweet: 3.4
  Thickness: 2.1
[5]
  Astringent: 1.8
  Bitter: 1.7
  Cereal Note: 2.5
  Creaminess: 1.6
  Fattiness: 1.4
  Green/Vegetal Note: 2.1
  Mouthcoating: 2.0
  Sweet: 3.6
  Thickness: 1.9
[6]
  Astringent: 2.4
  Bitter: 2.1
  Cereal Note: 2.7
  Creaminess: 2.3
  Fattiness: 1.9
  Green/Vegetal Note: 2.8
  Mouthcoating: 2.4
  Sweet: 2.8
  Thickness: 1.6
